The assay concerns HBV in HepAD38 cells. The note with it: Hepatitis B virus, HePAD38, 144 h, read-out: Cell activity.

Turning to `CN(C(=O)c1[nH]nc2c1CN(C(=O)Nc1ccc(F)c(Cl)c1)CC2)C1(c2ccc(C(=O)O)cc2)CC1` [Example 13, 4-(1-{N-methyl-5-[(3-chloro-4-fluorophenyl)carbamoyl]-2H,4H,5H,6H,7H-pyrazolo[4,3-c]pyridine-3-amido}cyclopropyl)benzoic acid], the EC50 is less than 100 µM.

With `CCN1C(=O)c2c3c(nn2CCC12CC2)CCN(C(=O)Nc1ccc(F)c(Cl)c1)C3` [Example 28, N-(3-chloro-4-fluorophenyl)-13′-ethyl-14′-oxo-4′,8′,9′,13′-tetraazaspiro[cyclopropane-1,12′-tricyclo[7.5.0.0^2,^7]tetradecane]-1′,7′-diene-4′-carboxamide], the EC50 is less than 1 µM.

For `CN(C(=O)c1cnn2c1CN(C(=O)Nc1ccc(F)c(Cl)c1)CC2)C1(Cc2ccc(C(=O)O)cc2)CC1` [Example 16, 4-[(1-{N-methyl-5-[(3-chloro-4-fluorophenyl)carbamoyl]-4H,5H,6H,7H-pyrazolo[1,5-a]pyrazine-3-amido}cyclopropyl)methyl]benzoic acid], the EC50 was less than 1 µM.

For the compound `CN1C(=O)c2c3c(nn2CCC12CC2)CCN(C(=O)Nc1ccc(F)c(Cl)c1)C3` [Example 11, N-(3-chloro-4-fluorophenyl)-13′-methyl-14′-oxo-4′,8′,9′,13′-tetraazaspiro[cyclopropane-1,12′-tricyclo[7.5.0.0^2,^7]tetradecane]-1′,7′-diene-4′-carboxamide], the EC50 is less than 1 µM.

Take `CC1Cn2cnc(C(=O)N(C)C3(c4cccc(C(=O)O)c4)CC3)c2CN1C(=O)Nc1ccc(F)c(Cl)c1` (centres unmarked) [Example 14, 3-(1-{N-methyl7-[(3-chloro-4-fluorophenyl)carbamoyl]-6-methyl-5H,6H,7H,8H-imidazo[1,5-a]pyrazine-1-amido}cyclopropyl)benzoic acid]: the EC50 is less than 1 µM.

As to `O=C(O)c1ccc(C2(NC(=O)c3cnn4c3CN(C(=O)Nc3ccc(F)c(Cl)c3)CC4)CC2)cc1` [Example 17, 4-(1-{5-[(3-chloro-4-fluorophenyl)carbamoyl]-4H,5H,6H,7H-pyrazolo[1,5-a]pyrazine-3-amido}cyclopropyl)benzoic acid], the EC50 is less than 100 µM.

Take `CN(C(=O)c1[nH]nc2c1CN(C(=O)Nc1ccc(F)c(Cl)c1)CC2)C1(c2ncc(C(=O)O)cn2)CC1` [Example 12, 2-(1-{N-methyl-5-[(3-chloro-4-fluorophenyl)carbamoyl]-2H,4H,5H,6H,7H-pyrazolo[4,3-c]pyridine-3-amido}cyclopropyl)pyrimidine-5-carboxylic acid]: the EC50 is 1 to 10 µM.

For the compound `COCC1(N(C)C(=O)c2noc3c2CN(C(=O)Nc2ccc(F)c(Cl)c2)CC3)CC1` [Example 3, N5-(3-chloro-4-fluorophenyl)-N3-[1-(methoxymethyl)cyclopropyl]-N3-methyl-4H,5H,6H,7H-[1,2]oxazolo[4,5-c]pyridine-3,5-dicarboxamide], the EC50 is less than 1 µM.

Regarding `O=C(O)c1cnc(C2(NC(=O)c3cnn4c3CN(C(=O)Nc3ccc(F)c(Cl)c3)CC4)CC2)nc1` [Example 5, 2-(1-{5-[(3-chloro-4-fluorophenyl)carbamoyl]-4H,5H,6H,7H-pyrazolo[1,5-a]pyrazine-3-amido}cyclopropyl)pyrimidine-5-carboxylic acid], the EC50 is less than 1 µM.

Consider `CN1C(=O)c2c3c(nn2CC12CC2)CCN(C(=O)Nc1ccc(F)c(F)c1)C3` [Example 10, N-(3,4-difluorophenyl)-4′-methyl-3′-oxo-4′,7′,8′,12′-tetraazaspiro[cyclopropane-1,5′-tricyclo[7.4.0.0^2,^7]tridecane]-1′,8′-diene-12′-carboxamide], for which the EC50 is less than 1 µM.

For `CN(C(=O)c1cnn2c1CN(C(=O)Nc1ccc(F)c(Cl)c1)CC2)C1(c2ccc(C(=O)O)cc2)CC1` [Example 2, 4-(1-{N-methyl-5-[(3-chloro-4-fluorophenyl)carbamoyl]-4H,5H,6H,7H-pyrazolo[1,5-a]pyrazine-3-amido}cyclopropyl)benzoic acid], the EC50 was less than 1 µM.

Consider `CN1C(=O)c2c3c(nn2CC12CC2)CCN(C(=O)Nc1ccc(F)c(Cl)c1)C3` [Example 4, N-(3-chloro-4-fluorophenyl)-4′-methyl-3′-oxo-4′,7′,8′,12′-tetraazaspiro[cyclopropane-1,5′-tricyclo[7.4.0.0^2,7]tridecane]-1′,8′-diene-12′-carboxamide], for which the EC50 was less than 1 µM.

In the case of `O=C(O)c1cccc(C2(NC(=O)c3cnn4c3CN(C(=O)Nc3ccc(F)c(Cl)c3)CC4)CC2)c1` [Example 18, 3-(1-{5-[(3-chloro-4-fluorophenyl)carbamoyl]-4H,5H,6H,7H-pyrazolo[1,5-a]pyrazine-3-amido}cyclopropyl)benzoic acid], the EC50 lay within 1 to 10 µM.

For `CN(C(=O)c1cnn2c1CN(C(=O)Nc1ccc(F)c(Cl)c1)CC2)C1(c2cc(C(=O)O)on2)CC1` [Example 27, 3-(1-{N-methyl-5-[(3-chloro-4-fluorophenyl)carbamoyl]-4H,5H,6H,7H-pyrazolo[1,5-a]pyrazine-3-amido}cyclopropyl)-1,2-oxazole-5-carboxylic acid #], the EC50 is less than 1 µM.

Turning to `CN(C(=O)c1cnn2c1CN(C(=O)Nc1ccc(F)c(Cl)c1)CC2)C1(c2ccccc2C(=O)O)CC1` [Example 29, 2-(1-{N-methyl-5-[(3-chloro-4-fluorophenyl)carbamoyl]-4H,5H,6H,7H-pyrazolo[1,5-a]pyrazine-3-amido}cyclopropyl)benzoic acid], the EC50 was less than 1 µM.

Take `C[C@@H](NC(=O)c1noc2c1CN(C(=O)Nc1ccc(F)c(Cl)c1)CC2)C(F)(F)F` [Example 8, N5-(3-chloro-4-fluorophenyl)-N3-[(2R)-1,1,1-trifluoropropan-2-yl]-4H,5H,6H,7H-[1,2]oxazolo[4,5-c]pyridine-3,5-dicarboxamide]: the EC50 was less than 1 µM.

Regarding `CN(C(=O)c1cnn2c1CN(C(=O)Nc1ccc(F)c(Cl)c1)CC2)C1(c2nccc(C(=O)O)n2)CC1` [Example 15, 2-(1-{N-methyl-5-[(3-chloro-4-fluorophenyl)carbamoyl]-4H,5H,6H,7H-pyrazolo[1,5-a]pyrazine-3-amido}cyclopropyl)pyrimidine-4-carboxylic acid], the EC50 lay within 1 to 10 µM.

Turning to `CC1Cn2ncc(C(=O)N(C)C3(c4ccc(C(=O)O)cc4)CC3)c2CN1C(=O)Nc1ccc(F)c(Cl)c1` (centres unmarked) [Example 9, 4-(1-{N-methyl-5-[(3-chloro-4-fluorophenyl)carbamoyl]-6-methyl-4H,5H,6H,7H-pyrazolo[1,5-a]pyrazine-3-amido}cyclopropyl)benzoic acid], the EC50 was less than 1 µM.

Consider `O=C(O)c1ccc(C2(NC(=O)c3cnn4c3CN(C(=O)Nc3ccc(F)c(Cl)c3)CC4)CC2)nc1` [Example 6, 6-(1-{5-[(3-chloro-4-fluorophenyl)carbamoyl]-4H,5H,6H,7H-pyrazolo[1,5-a]pyrazine-3-amido}cyclopropyl)pyridine-3-carboxylic acid], for which the EC50 was less than 1 µM.

With `CN(C(=O)c1cnn2c1CN(C(=O)Nc1ccc(F)c(Cl)c1)CC2)C1(c2cccc(C(=O)O)c2)CC1` [Example 1, 3-(1-{N-methyl-5-[(3-chloro-4-fluorophenyl)carbamoyl]-4H,5H,6H,7H-pyrazolo[1,5-a]pyrazine-3-amido}cyclopropyl)benzoic acid], the EC50 was less than 1 µM.

For the origin of these results see patent US20220227785A1, “NOVEL PHENYL AND PYRIDYL UREAS ACTIVE AGAINST THE HEPATITIS B VIRUS (HBV)” (AICURIS GMBH & CO. KG, priority 2019, published 2022).
